Results: patent US10869931B2, “Polyethylene glycol-modified angiogenesis inhibitor HM-1 and application thereof” (NANJING ANJI BIOLOGICAL TECHNOLOGY CO.,LTD, priority 2016, dated 2020)
Marks after values point to notes of the source that are not given here. Where no end group is shown, it is not given here.

How the values were obtained:
[1] = system: Thyroid cancer tumor cells; test: MTT proliferation inhibition, thyroid cancer cells; assay type: cell-based, human; set-up: concentration or dose not given beside the values; details: 48 h
How it was run: (§1)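 Tumour cells plated at 2×10^4 cells/mL, attached overnight, then exposed to dilutions of mPEG-HM-1 for 48 h at 37 °C, 5% CO2. MTT added 4 h, formazan dissolved in DMSO, absorbance 570/630 nm; growth inhibition = 1 − treated/untreated, three independent repeats, mean±SD.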

[2] = system: Pancreatic cancer tumor cells; test: MTT proliferation inhibition, pancreatic cancer cells; assay type: cell-based, human; set-up: concentration or dose not given beside the values; details: 48 h
How it was run: as §1

[3] = system: Gastric cancer tumor cells; test: MTT proliferation inhibition, gastric cancer cells; assay type: cell-based, human; set-up: concentration or dose not given beside the values; details: 48 h
How it was run: as §1

[4] = system: Colorectal cancer tumor cells; test: MTT proliferation inhibition, colorectal cancer cells; assay type: cell-based, human; set-up: concentration or dose not given beside the values; details: 48 h
How it was run: as §1

[5] = system: Bladder Cancer tumor cells; test: MTT proliferation inhibition, bladder cancer cells; assay type: cell-based, human; set-up: concentration or dose not given beside the values; details: 48 h
How it was run: as §1

Melanoma tumor cells = test: MTT proliferation inhibition, melanoma cells; assay type: cell-based, human; set-up: concentration or dose not given beside the values; details: 48 h
How it was run: as §1

[6] = system: Human Umbilical Vein Endothelial Cells (HUVEC); test: Transwell migration of HUVEC; assay type: cell-based; details: 24 h
How it was run: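 HUVEC (1×10^5/mL in blank medium) seeded with test solutions into Matrigel-coated transwell inserts, lower chamber holding medium with 5% FBS and 1% ECGS, 24 h at 37 °C. Migrated cells crystal-violet stained and counted in four fields; migration inhibition calculated from test versus blank-control counts, three independent repeats.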

[7] = system: adjuvant arthritis (AA) SD rats; test: Adjuvant arthritis (AA) rat model; assay type: in vivo; details: for Joint swelling / Left and right paw swelling / Clinical score: AA SD rats; for Clinical score: maximum score 16; for in vivo immune protection effect on adjuvant arthritis model (in words): AA rats, subcutaneous, once every three days, vs model group
[8] = system: carrageenan-induced toe swelling in SD rats; test: Carrageenan-induced acute toe swelling in rats; assay type: in vivo, rat; set-up: Swelling: unit not given here; details: for inhibition of carrageenan-induced toe swelling (in words): rats, once a day for 3 days
How it was run: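 SD rats dosed with mPEG-HM-1 once daily for 3 days […]; 1 h after last dose, 0.1 mL 1% carrageenan injected subcutaneously into right hind paw. Paw volume measured by liquid displacement at 1, 3, 5 and 7 h; swelling = post- minus pre-inflammation volume (mL).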

[9] = system: retinal neovascular clusters in OIR C57/B16 mice; test: Retinal blood vessels in OIR mice; assay type: in vivo, mouse; details: for Neovascular clusters area: retina evaluated on day 17; for Inhibition rate: neovascular clusters area vs control, day 17; for inhibition rate of retinal neovascular clusters: OIR mice, 50 μg intravitreal injection, evaluated day 17
How it was run: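 C57/B16 pups and mothers were held in 75% oxygen from postnatal day 7 to 12, then returned to room air. On day 13 the PEGylated HM-1 conjugates or saline were given by intravitreal injection; on day 17 retinal vessels were assessed after intracardiac Texas Red-tomato lectin, circulated 5 min.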

[10] = 20 mg/kg subcutaneous once every three days
[11] = 40 mg/kg once a day for 3 days, 1 h after carrageenan
[12] = 40 mg/kg once a day for 3 days, 3 h after carrageenan
[13] = 40 mg/kg once a day for 3 days, 5 h after carrageenan
[14] = 40 mg/kg once a day for 3 days, 7 h after carrageenan
[15] = 50 μg intravitreal injection on day 13
[16] = 40 mg/kg subcutaneous once every three days
[17] = 80 mg/kg once a day for 3 days, 1 h after carrageenan
[18] = 80 mg/kg once a day for 3 days, 3 h after carrageenan
[19] = 80 mg/kg once a day for 3 days, 5 h after carrageenan
[20] = 80 mg/kg once a day for 3 days, 7 h after carrageenan
[21] = 100 μg intravitreal injection on day 13
[22] = 80 mg/kg subcutaneous once every three days

| Substance | rate of growth inhibition [1] | rate of growth inhibition [2] | rate of growth inhibition [3] | rate of growth inhibition [4] | rate of growth inhibition [5] | rate of growth inhibition (Melanoma tumor cells) | cell migration number (Mean ± SD) ([6]; 50 μg/mL) | inhibition rate of HUVEC migration ([6]; 50 μg/mL) | cell migration number (Mean ± SD) ([6]; 60 μg/mL) | inhibition rate of HUVEC migration ([6]; 60 μg/mL) | inhibition rate of HUVEC migration ([6]; 70 μg/mL) | inhibition rate of HUVEC migration ([6]; 80 μg/mL) | Swelling [8, 11] | Swelling [8, 12] | Swelling [8, 13] | Swelling [8, 14] | cell migration number (Mean ± SD) ([6]; 90 μg/mL) | inhibition rate of HUVEC migration ([6]; 90 μg/mL) | cell migration number (Mean ± SD) ([6]; 100 μg/mL) | inhibition rate of HUVEC migration ([6]; 100 μg/mL) | further results |
| --- | --- | --- | --- | --- | --- | --- | --- | --- | --- | --- | --- | --- | --- | --- | --- | --- | --- | --- | --- | --- | --- |
| mPEG-SC10k-Arg-Gly-Ala-Asp-Arg-Ala-Gly-Gly-Gly-Gly-Arg-Gly-Asp ({mPEG‑SC 10 kDa}-RGADRAGGGGRGD) [mPEG-SC10k-HM-1] | 46.23 ± 13.05% | 60.53 ± 17.16% | 56.22 ± 16.19% | 61.35 ± 16.88% | 42.76 ± 10.06% | 70.62 ± 20.17% | 612.15 ± 50.34 | 42.49%* | 527.08 ± 48.30 | 50.31% | 58.53% | 45.29%* | 0.22 ± 0.09 | 0.32 ± 0.19 | 0.37 ± 0.12 | 0.34 ± 0.13 | – | – | – | – | cell migration number (Mean ± SD) ([6]; 70 μg/mL): 439.89 ± 48.08; cell migration number (Mean ± SD) ([6]; 80 μg/mL): 580.33 ± 58.20; Joint swelling [7, 10]: 0.70 ± 0.18 mm; Left and right paw swelling [7, 10]: 3.81 ± 0.71 mm; Clinical score [7, 10]: 5.52 ± 1.07; in vivo immune protection effect on adjuvant arthritis model (in words) [7]: has the most significant effect; Swelling ([8]; 20 mg/kg once a day for 3 days, 1 h after carrageenan): 0.25 ± 0.11; Swelling ([8]; 20 mg/kg once a day for 3 days, 3 h after carrageenan): 0.38 ± 0.15; Swelling ([8]; 20 mg/kg once a day for 3 days, 5 h after carrageenan): 0.43 ± 0.17; Swelling ([8]; 20 mg/kg once a day for 3 days, 7 h after carrageenan): 0.31 ± 0.11; Neovascular clusters area [9, 15]: 0.096 ± 0.008 mm^2; Inhibition rate ([9]; 50 μg intravitreal): 56.56%**; inhibition rate of retinal neovascular clusters [9]: 56.56% |
| mPEG-SC20k-Arg-Gly-Ala-Asp-Arg-Ala-Gly-Gly-Gly-Gly-Arg-Gly-Asp ({mPEG‑SC 20 kDa}-RGADRAGGGGRGD) [mPEG-SC20k-HM-1] | 50.78 ± 13.46% | 62.63 ± 18.13% | 66.14 ± 20.08% | 66.19 ± 20.58% | 50.39 ± 11.73% | 72.14 ± 20.69% | – | – | – | – | 43.74%* | 52.93% | 0.28 ± 0.14 | 0.35 ± 0.17 | 0.42 ± 0.15 | 0.37 ± 0.16 | 415.07 ± 46.74 | 60.87% | 559.75 ± 52.94 | 47.23%* | cell migration number (Mean ± SD) ([6]; 70 μg/mL): 596.77 ± 50.58; cell migration number (Mean ± SD) ([6]; 80 μg/mL): 499.29 ± 50.26; Joint swelling [7, 16]: 0.81 ± 0.20 mm; Left and right paw swelling [7, 16]: 3.75 ± 0.67 mm; Clinical score [7, 16]: 5.83 ± 1.01; Swelling [8, 17]: 0.26 ± 0.10; Swelling [8, 18]: 0.33 ± 0.12; Swelling [8, 19]: 0.40 ± 0.13; Swelling [8, 20]: 0.32 ± 0.17; inhibition of carrageenan-induced toe swelling (in words) ([8]; 80 mg/kg): most effective; Neovascular clusters area [9, 21]: 0.110 ± 0.010 mm^2; Inhibition rate ([9]; 100 μg intravitreal): 50.23%** |
| mPEG-SC40k-Arg-Gly-Ala-Asp-Arg-Ala-Gly-Gly-Gly-Gly-Arg-Gly-Asp ({mPEG‑SC 40 kDa}-RGADRAGGGGRGD) [mPEG-SC40k-HM-1] | 50.13 ± 14.21% | 60.45 ± 17.25% | 55.13 ± 10.32% | 62.45 ± 19.22% | 48.69 ± 11.61% | 68.73 ± 21.25% | – | – | – | – | – | – | – | – | – | – | 632.63 ± 58.69 | 40.36%* | 501.84 ± 62.84 | 52.69% | cell migration number (Mean ± SD) ([6]; 110 μg/mL): 464.50 ± 48.47; inhibition rate of HUVEC migration ([6]; 110 μg/mL): 56.21%; cell migration number (Mean ± SD) ([6]; 120 μg/mL): 542.89 ± 49.29; inhibition rate of HUVEC migration ([6]; 120 μg/mL): 48.82%*; Joint swelling [7, 22]: 0.71 ± 0.11 mm; Left and right paw swelling [7, 22]: 3.83 ± 0.62 mm; Clinical score [7, 22]: 5.88 ± 1.08; Swelling [8, 17]: 0.25 ± 0.13; Swelling [8, 18]: 0.34 ± 0.12; Swelling [8, 19]: 0.44 ± 0.15; Swelling [8, 20]: 0.34 ± 0.16; Swelling ([8]; 160 mg/kg once a day for 3 days, 1 h after carrageenan): 0.24 ± 0.12; Swelling ([8]; 160 mg/kg once a day for 3 days, 3 h after carrageenan): 0.33 ± 0.13; Swelling ([8]; 160 mg/kg once a day for 3 days, 5 h after carrageenan): 0.43 ± 0.12; Swelling ([8]; 160 mg/kg once a day for 3 days, 7 h after carrageenan): 0.33 ± 0.13; Neovascular clusters area ([9]; 200 μg intravitreal injection on day 13): 0.119 ± 0.005 mm^2; Inhibition rate ([9]; 200 μg intravitreal): 46.18%* |
| mPEG-bALD10k-Arg-Gly-Ala-Asp-Arg-Ala-Gly-Gly-Gly-Gly-Arg-Gly-Asp ({mPEG‑bALD 10 kDa}-RGADRAGGGGRGD) [mPEG-bALD10k-HM-1] | 55.74 ± 13.13% | 75.23 ± 16.41% | 75.01 ± 16.20% | 75.62 ± 18.03% | 49.61 ± 12.12% | 82.33 ± 20.08% | 589.97 ± 56.24 | 45.98%* | 483.16 ± 50.26 | 55.76% | 60.38%** | – | – | – | – | – | 504.35 ± 48.36 | 53.82%** | 568.57 ± 56.90 | 47.94%* | Joint swelling [7, 10]: 0.69 ± 0.13 mm; Left and right paw swelling [7, 10]: 3.73 ± 0.52 mm; Clinical score [7, 10]: 5.40 ± 1.09; in vivo immune protection effect on adjuvant arthritis model (in words) [7]: has the most significant effect; inhibition of carrageenan-induced toe swelling (in words) ([8]; 40 mg/kg): most effective; Neovascular clusters area [9, 15]: 0.083 ± 0.006 mm^2; Inhibition rate ([9]; 50 μg intravitreal): 62.35%**; inhibition rate of retinal neovascular clusters [9]: 62.35% |
| mPEG-bALD20k-Arg-Gly-Ala-Asp-Arg-Ala-Gly-Gly-Gly-Gly-Arg-Gly-Asp ({mPEG‑bALD 20 kDa}-RGADRAGGGGRGD) [mPEG-bALD20k-HM-1] | 49.38 ± 13.20% | 69.54 ± 18.37% | 70.21 ± 18.32% | 70.73 ± 16.92% | 45.24 ± 10.69% | 80.75 ± 22.94% | – | – | – | – | – | 55.68% | 0.25 ± 0.15 | 0.35 ± 0.14 | 0.42 ± 0.15 | 0.36 ± 0.18 | – | 53.82% | – | – | Joint swelling [7, 16]: 0.77 ± 0.23 mm; Left and right paw swelling [7, 16]: 3.78 ± 0.63 mm; Clinical score [7, 16]: 5.68 ± 1.10; Neovascular clusters area [9, 21]: 0.097 ± 0.011 mm^2; Inhibition rate ([9]; 100 μg intravitreal): 56.22%** |
